# Measured values published in patent publication US4835185A, “Immunomodulator for improving commercial performance of domestic animals” (Iowa State University Research Foundation, Inc., priority 1987, dated 1989).
# Experiments:
# [1] = Laying hens: egg production and egg yolk cholesterol; assay type: in vivo, laying hens (chickens)
# Method: Laying hens (69 weeks of age) were randomly assigned to either a control diet or a diet containing 0.2 wt % KIC (Na). For the next 28 days feed consumption was recorded and eggs collected. Eggs were weighed and analyzed for egg yolk cholesterol. The feed composition is shown in Table C and the results in Table D. The total protein was about 18% on a dry matter basis, and the amount of leucine was about 9% of the protein. The control diet was the same except for the omission of the KIC.
# [2] = tested on: lymphocytes; test: Study of Immune Function: lymphocyte blastogenesis, cattle (experiment 3); assay type: cell-based, castrated male cattle
# [3] = Feedlot steers: performance and carcass; assay type: in vivo, steers (cattle)
# Excerpt: Seventy-two medium-frame steers, with an average weight of 578 lbs., were allotted to 12 pens of 6 animals each. A common basal diet was fed ad libitum to all cattle. This consisted of 48.9% cracked corn, 24.4% ground corn cobs, 17.8% expeller Soybean meal, 7.0% molasses (liquid), 1.3% limestone, 0.25% dicalcium phosphate, 2% salt, 0.02% trace mineral premix, and 0.1% vitamin A premix for the first 58 days of the experiment, and was changed to 54.3% cracked corn and 12.8% expeller soybean meal for the remaining 103 days of the experiment. Three pens were assigned to each treatment. The treatments consisted of four levels of Ca-KIC in a pelleted supplement: 0%, 0.02%, 0.07%, and 0.20% of the basal diet (0.05% control pellets, 0.04% KIC pellets, 0.14% KIC pellets, and 0.40% KIC pellets). The pellets were preweighted and top-dressed on the basal diet twice daily. After 58 days, the cattle on the 0.20% KIC were removed from the experiment. The cattle were not implanted with a growth promotant nor were ionophores included in the diet. The cattle were placed in the feedlot and fed a growing ration for 5 weeks prior to the start of the experiment. The cattle were weighed on 2 consecutive days at the beginning and end of the experiment, and every 14 days during the trial. The cattle were sold through a commercial beef processing plant when they were approaised by visual examination to grade Choice. Loin eye area and fat thickness over the loin were measured on each carcass. Quality and yield grades, and percent kidney, heart, and lepvic (KHP) fat were estimated by the federal graders.
# Therefore, an attempt was made to protect KIC from ruminal degradation. KIC pellets, resistant to rumen degradation, were made by mixing zein, ethanol, KIC, limestone, bentonite and water in a ratio of 8.3:7.4:5.2:3:2:1. This mixture was extruded through a die of 15 mm directly into a vat of liquid nitrogen. The shattered pellets were spread out and allowed to air-dry for two days. The dried pellets were coated with zein (2% w/w) by spraying with a 30% zein solution made in 80% ethanol. The pellets again were air-dried. Control pellets were made similar to the KIC pellets except that the mixture was zein, limestone, ethanol, bentonite and water in a ratio of 12:12:7.5:2.7:1. When KIC pellets were placed in the rumen (nylon bag technique), 45% of the KIC added was present in the bags after 36 hr of rumen digestion.
# KIC was obtained from SOBAC, Paris, France. Zein was purchased from Freeman Industries, Tuckahoe, N.Y. Each experiment was statistically analyzed by analysis of variance with three pens per treatment.
compound,measurement,setting,value
"CC(C)CC(=O)C(=O)O [KIC, alpha-ketoisocaproate]",Av. Eggs,"[1]; 0.2 wt % KIC (Na), 28 days (control 1.105)",1.233 kg./hen
same,Average No. Eggs/Hen,"[1]; 0.2 wt % KIC (Na), 28 days (control 17.7)",19.5
same,Feed Average,"[1]; 0.2 wt % KIC (Na), 28 days (control 109)",109 gms/hen/day
same,Avg. yolk Cholesterol,"[1]; 0.2 wt % KIC (Na), 28 days (control 1068)",996 mg/100 gms
same,"Av. Eggs (kg./hen), % Change",[1]; vs control,+11.1%
same,"Average No. Eggs/Hen, % Change",[1]; vs control,+10.2%
same,"Avg. yolk Cholesterol, % Change",[1]; vs control,-7%
same,"Feed Average, % Change",[1]; vs control,0%
same,BKG: background blastogenesis,"[2]; Exp. 3, oral coated 0.02% KIC (control 1410)",1550 Counts/min per 2 × 10^5 cells
same,PWM: pokeweed mitogen-stimulated blastogenesis,"[2]; Exp. 3, oral coated 0.02% KIC (control 23100)",27100 Counts/min per 2 × 10^5 cells
same,PHA: phytohemagglutinin-stimulated blastogenesis,"[2]; Exp. 3, oral coated 0.02% KIC (control 40500)",43200 Counts/min per 2 × 10^5 cells
same,ConA: concanavalin A-stimulated blastogenesis,"[2]; Exp. 3, oral coated 0.02% KIC (control 40900)",48800 Counts/min per 2 × 10^5 cells
same,BKG: background blastogenesis,"[2]; Exp. 3, oral coated 0.07% KIC (control 1410)",2080 Counts/min per 2 × 10^5 cells
same,PWM: pokeweed mitogen-stimulated blastogenesis,"[2]; Exp. 3, oral coated 0.07% KIC (control 23100)",38000 Counts/min per 2 × 10^5 cells
same,PHA: phytohemagglutinin-stimulated blastogenesis,"[2]; Exp. 3, oral coated 0.07% KIC (control 40500)",74300 Counts/min per 2 × 10^5 cells
same,ConA: concanavalin A-stimulated blastogenesis,"[2]; Exp. 3, oral coated 0.07% KIC (control 40900)",75400 Counts/min per 2 × 10^5 cells
same,BKG: background blastogenesis,"[2]; Exp. 3, oral coated 0.20% KIC (control 1410)",1690 Counts/min per 2 × 10^5 cells
same,PWM: pokeweed mitogen-stimulated blastogenesis,"[2]; Exp. 3, oral coated 0.20% KIC (control 23100)",30500 Counts/min per 2 × 10^5 cells
same,PHA: phytohemagglutinin-stimulated blastogenesis,"[2]; Exp. 3, oral coated 0.20% KIC (control 40500)",56900 Counts/min per 2 × 10^5 cells
same,ConA: concanavalin A-stimulated blastogenesis,"[2]; Exp. 3, oral coated 0.20% KIC (control 40900)",54400 Counts/min per 2 × 10^5 cells
same,Feed conversion improvement,"[3]; 161-day trial, 0.02% KIC, NS",8%
same,daily gain increase,"[3]; 161-day trial, 0.02% KIC, p<0.01",14%
same,daily gain increase,"[3]; 161-day trial, 0.07% KIC, (NX)",7%
same,Feed conversion improvement,"[3]; 161-day trial, 0.07% KIC, NS",6%
same,Daily gain,"[3]; 58 days, 0.07% dietary KIC (0%: 2.80)",3.12 lb.
same,Feed/Gain,"[3]; 58 days, 0.07% dietary KIC (0%: 5.7)",5.2
same,Daily intake,"[3]; 58 days, 0.07% dietary KIC (0%: 16.0)",16.3 lb DM/day
same,Ending wt.,"[3]; 58 days, 0.07% dietary KIC (0%: 756)",770 lb.
same,Daily gain,"[3]; 58 days, 0.20% dietary KIC (0%: 2.80)",3.19 lb.
same,Feed/Gain,"[3]; 58 days, 0.20% dietary KIC (0%: 5.7)",5.2
same,Daily intake,"[3]; 58 days, 0.20% dietary KIC (0%: 16.0)",16.3 lb DM/day
same,Ending wt.,"[3]; 58 days, 0.20% dietary KIC (0%: 756)",779 lb.
same,Daily gain,"[3]; 58 days, % dietary KIC printed 0.2 (0%: 2.80), * p<.1",3.36 lb.
same,Feed/Gain,"[3]; 58 days, % dietary KIC printed 0.2 (0%: 5.7), ** p<.05",5.0
same,Daily intake,"[3]; 58 days, % dietary KIC printed 0.2 (0%: 16.0)",16.8 lb DM/day
same,Ending wt.,"[3]; 58 days, % dietary KIC printed 0.2 (0%: 756)",786 lb.
same,Daily gain,"[3]; 161 days, 0.02% dietary KIC (0%: 2.66), *** p<.01",3.03 lb.
same,Feed/Gain,"[3]; 161 days, 0.02% dietary KIC (0%: 8.0)",7.4
same,Daily intake,"[3]; 161 days, 0.02% dietary KIC (0%: 21.2)",22.6 lb DM/day
same,Ending wt.,"[3]; 161 days, 0.02% dietary KIC (0%: 1016)",1068 lb.
same,Daily gain,"[3]; 161 days, 0.07% dietary KIC (0%: 2.66)",2.85 lb.
same,Feed/Gain,"[3]; 161 days, 0.07% dietary KIC (0%: 8.0)",7.5
same,Daily intake,"[3]; 161 days, 0.07% dietary KIC (0%: 21.2)",21.6 lb DM/day
same,Ending wt.,"[3]; 161 days, 0.07% dietary KIC (0%: 1016)",1035 lb.
same,Feed conversion improvement,"[3]; first 58 days, 0.02% KIC, p<0.05",13%
same,daily gain increase,"[3]; first 58 days, 0.02% KIC, p<0.07",20%
same,daily gain increase,"[3]; first 58 days, 0.07% KIC, NS",11%
same,Feed conversion improvement,"[3]; first 58 days, 0.07% KIC, p<0.17",9%
same,Feed conversion improvement,"[3]; first 58 days, 0.20% KIC, p<0.11",10%
same,daily gain increase,"[3]; first 58 days, 0.20% KIC, p<0.18",14%
same,Feed conversion improvement,"[3]; long-term trial, summary",up to 8%
same,daily gain increase,"[3]; long-term trial, summary",up to 14%
